Measurements published in patent publication US20090196864A1 (priority 2005, published 2009).
Where two headings read alike, the source gives them in different places. Where a SMILES comes first, the peptide text is derived from it. The star is where a group is joined. Cbz = O=C(OCc1ccccc1)*; CH2F = FC*

Key:
[1] = test system: S5 cells; assay type: cell-based, Trichoplusia ni
[2] = test system: S5 cells; assay type: cell-based, Trichoplusia ni; remark: listed apart in the source
[3] = test system: S5 cells; conditions: Zhang et al. 2005, cited from earlier work; for Effect of chelator on toxin-induced death: S5 cells pre-treated with chelator, then Cry1Ab toxin
[4] = test system: S5 cells; conditions: Zhang et al. 2005, cited from earlier work; for Effect of osmotic protectant on blebbing and swelling of toxin-exposed cells: 30 mM protectant
[5] = test system: H5 cells; assay type: cell-based, Trichoplusia ni
[6] = test system: S5 cells; assay type: cell-based, Trichoplusia ni; remark: listed apart in the source
[7] = test system: S5 cells; conditions: either stage of cytotoxicity; shown previously; cited from earlier work
[8] = test system: H5 cells; conditions: cultured H5 cells without receptor; Zhang et al. 2005; cited from earlier work

In the case of CC(C)Cn1c(=O)n(C)c(=O)c2[nH]cnc21 [IBMX], the “Level of cAMP” value [1] is reported as “did not cause any elevation”.
With C=C1[C@@H](C)[C@H]2[C@H](Cc3ccccc3)NC(=O)[C@]23[C@H](OC(C)=O)/C=C/[C@@](C)(O)C(=O)[C@@H](C)C/C=C/[C@H]3[C@@H]1O [Cytochalasin D] the Cell death [2] was “+ (key: + = 80 ± 5% cell death; − = no cell death)”.
In the case of O=C(Nc1cccc(C(=O)Nc2ccc(S(=O)(=O)O)c3cc(S(=O)(=O)O)cc(S(=O)(=O)O)c23)c1)Nc1cccc(C(=O)Nc2ccc(S(=O)(=O)O)c3cc(S(=O)(=O)O)cc(S(=O)(=O)O)c23)c1 [NF023], the “Effect on Cry1Ab toxicity” value [2] is reported as “did not have any effect”.
In the case of O=C(O)CN(CCN(CC(=O)O)CC(=O)O)CC(=O)O [EDTA], the “Effect on Cry1Ab-induced cAMP levels” value [1] is listed as “virtually precluded any increase in cAMP levels”, the “Effect on FSK induction of cAMP” value [1] is listed as “precluded FSK induction of cAMP” and the “Effect of chelator on toxin-induced death” value [3] is listed as “completely abolished toxin-induced death”. The Cell death [2] was “− (key: + = 80 ± 5% cell death; − = no cell death)” and the “Effect on Cry1Ab-induced toxicity and cell death” value [2] was “prevented completely”.
For OC[C@H]1O[C@H](OC[C@H]2O[C@H](O[C@]3(CO)O[C@H](CO)[C@@H](O)[C@@H]3O)[C@H](O)[C@@H](O)[C@@H]2O)[C@H](O)[C@@H](O)[C@H]1O [raffinose], the “Fate of protectant-treated S5 cells after Cry1Ab exposure” value ([3]; raffinose-treated cells) is given as “eventually died” and the “Effect of osmotic protectant on blebbing and swelling of toxin-exposed cells” value [4] is given as “arrested in the blebbing stage and did not swell”.
With CO/C1=C\C(C)=C\[C@@H](C)[C@@H](O)[C@@H](C)C/C(C)=C/C=C/[C@H](OC)[C@@H]([C@@H](C)[C@@H](O)[C@H](C)[C@@]2(O)C[C@@H](O)[C@H](C)[C@@H](C(C)C)O2)OC1=O [Bafilomycin A] the Cell death [2] was “+ (key: + = 80 ± 5% cell death; − = no cell death)”.
In the case of Cry1Ab toxin, the cAMP production [1] is reported as “increased in a time-dependent manner”, the cAMP levels [5] is reported as “did not change” and the “Externalization of phosphatidylserine or DNA fragmentation” value [6] is reported as “no externalization of phosphatidylserine or DNA fragmentation was observed”. The Internalization of toxin [7] was “not internalized”, the “Effect of toxin on cells” value [8] was “not affected” and the “Time to cell swelling and lysis” value ([4]; S5 cells) was at most 40 min. For the same compound, the “Time to membrane blebbing after toxin exposure” value ([4]; S5 cells) was at most 20 min.
For O=C(Nc1cc(C(=O)Nc2ccc(S(=O)(=O)O)cc2S(=O)(=O)O)cc(C(=O)Nc2ccc(S(=O)(=O)O)cc2S(=O)(=O)O)c1)Nc1cc(C(=O)Nc2ccc(S(=O)(=O)O)cc2S(=O)(=O)O)cc(C(=O)Nc2ccc(S(=O)(=O)O)cc2S(=O)(=O)O)c1 [NF449], the “Decrease of relative toxicity (cell death) mediated by Cry1Ab” value [2] was 50%.
In the case of C[C@H]1O[C@@H](n2cnc3c(N)ncnc32)C[C@@H]1OP(=O)(O)OP(=O)(O)O [ddADP, 2′,5′-dideoxy-3′-ADP], the “Reduction of number of cells undergoing cell death” value [2] is reported as 50%.
In the case of Cc1ccc(S(=O)(=O)N[C@@H](Cc2ccccc2)C(=O)CCl)cc1 [TPCK], the Cell death [2] is reported as “+ (key: + = 80 ± 5% cell death; − = no cell death)” and the “Effect on Cry1Ab-induced toxicity and cell death” value [2] is reported as “had no effect”.
In the case of OC[C@H]1O[C@@](CO)(O[C@H]2O[C@H](CO)[C@@H](O)[C@H](O)[C@H]2O)[C@@H](O)[C@@H]1O [Sucrose, sucrose], the “Effect of osmotic protectant on blebbing and swelling of toxin-exposed cells” value [4] is given as “partially prevented cell swelling”.
In the case of Cl.NCCc1ccc(S(=O)(=O)F)cc1 [Pefabloc], the Cell death [2] is reported as “+ (key: + = 80 ± 5% cell death; − = no cell death)” and the “Effect on Cry1Ab-induced toxicity and cell death” value [2] is reported as “had no effect”.
In the case of COC(=O)C[C@H](NC(=O)[C@H](C)NC(=O)[C@@H](NC(=O)OCc1ccccc1)C(C)C)C(=O)CF [Z-VAD-fmk] (Cbz-Val-Ala-Asp(OMe)-CH2F), the Cell death [2] is reported as “+ (key: + = 80 ± 5% cell death; − = no cell death)” and the “Effect on Cry1Ab-induced toxicity and cell death” value [2] is reported as “did not suppress”.
For O=C(O)CN(CCOCCOCCN(CC(=O)O)CC(=O)O)CC(=O)O [EGTA], the “Effect of chelator on toxin-induced death” value [3] is listed as “fully susceptible” and the Cell death [2] is listed as “+ (key: + = 80 ± 5% cell death; − = no cell death)”.
In the case of COC(=O)Nc1nc2ccc(C(=O)c3cccs3)cc2[nH]1 [Nocodazole], the Cell death ([2]; S5 cells treated with inhibitor, switched to inhibitor-free buffer before Cry1Ab toxin treatment, percent of dead cells by Trypan blue staining) is reported as “+ (+ = 80 ± 5% cell death)”.
In the case of Nc1ncnc2c1nc(Sc1ccc(Cl)cc1)n2[C@@H]1O[C@@H]2COP(=O)(O)O[C@H]2[C@H]1O [pCPT-cAMP], the “Cell death with Cry1Ab after pre-treatment” value [2] is reported as about 100% and the “Cell death without Cry1Ab treatment” value [2] is reported as “Neither FSK nor pCPT-cAMP alone was sufficient to bring about cell death”.
